Where two headings read alike, the source gives them in different places.
Assays:
[1] = target: T1, ERK2[2-360(p-T185/p-Y187)]-Avi (Homo sapiens, UniProt P28482); experiment: Biochemical assay (HTRF competition assay); format: binding; settings: HTRF competition with Example 15 probe, overnight at RT; read-out: Biochemical qualified AC50
T1 construct: 400 pM ERK2[2-360(p-T185/p-Y187)]-Avi was added to the plate
Experimental: The competition assays were performed at RT in a 384-well white polystyrene, flat bottom plate (Greiner #784075) using a final reaction volume of 15 μL and the following assay buffer conditions: 50 mM MOPS, pH 7.2, 10 mM MgCl2, 0.5 mM TCEP, 0.01% Triton-X-100. 75 nL of a 10 mM compound solution in DMSO or 100% DMSO (12 point titration, final concentration: 50 μM-300 pM; final DMSO: 0.5%) was added using an acoustic liquid handler (Echo, Beckman Coulter) to wells containing 7.5 μL of 1-(6-((R)-3-(1-(5-chloro-1-((tetrahydro-2H-pyran-4-yl)methyl)-1H-indole-3-carbonyl)-4-(4-fluorophenyl)piperidine-4-carboxamido)pyrrolidin-1-yl)-6-oxohexyl)-3,3-dimethyl-5-sulfo-2-((1E,3E)-5-((E)-1,3,3-trimethyl-5-sulfoindolin-2-ylidene)penta-1,3-dien-1-yl)-3H-indol-1-ium (Example 15); 7.5 μL 400 pM SA-Tb (Cisbio, 610SATLB) and 400 pM ERK2[2-360(p-T185/p-Y187)]-Avi was added to the plate and incubated overnight at RT. HTRF signal was measured using a microplate reader (PheraStar, BMG Labtech) with excitation and emission wavelengths of […], respectively. The inhibitor dose-response curves were analyzed from the HTRF ratio signal using normalized IC50 regression curve fitting with control-based normalization.

[2] = target: T2, nanobit-large-bit-ERK2 and nanobit-small-bit-PEA15 in WM793 cells (Homo sapiens, UniProt P28482); experiment: NanoBiT assay; format: cell-based; settings: WM793 nanobit stable cell line, overnight incubation; read-out: NanoBiT qualified absolute AC50
T2 construct: expressed in transfected cells
Experimental: (§1) Cancer cell media was prepared by adding 500 mL of RPMI (ThermoFisher cat ##22400-089) and 10% Fetal Bovine Serum (Gibco) for WM793 cells (ATCC Cat #CRL-2806, RRID: CVCL 8787) and F12K (Thermo Fisher cat #21127-022, 500 mL; or 21127-030, 10×500 mL)+10% FBS for PC3 (ATCC CRL-1435) cells. The entire media with supplements was filter sterilized through a 0.4 μm bottle top filter system. Cancer cell lines were detached from traditional cell culture flasks by washing three times with 1×PBS and adding an appropriate amount of 0.25% TrypLE™ Express Enzyme (1×), no phenol red (ThermoFisher cat #12604013) to create a thin layer over the cells. Trypsin was neutralized with media containing serum and proceeded to count the cells.
A nanobit stable cell line was generated using WM793 cells with nanobit-large-bit-ERK2 and nanobit-small-bit-PEA15. […] In a biological safety cabinet, cells were seeded using a sterilized small stainless steel tipped cassette on a Multi-drop Combi. Between different cell lines, the tubing of the cassette was flushed with 1× sterile PBS for 10 s. Alternatively, cells can be seeded using a Multi-flow located within a Hepa filtered robotics room using either a sterilized small sapphire jewel tipped cassette and the peristatic pump, or the attached syringe pump, depending on volume of plates per cell line needed. The plates were placed in an incubator set at 37° C., with 5% CO2 and 95% relative humidity. A 10-point, 3-fold serial dilution of compounds was prepared in 100% DMSO on a liquid handling robot with a 10 mM top concentration. 90 nl/well was dispensed in three assay plates/1 compound source plate, with the highest concentration at 30 μM. After addition of compound was complete, the plates were placed into an incubator at 37° C., with 5% CO2 and 95% relative humidity for overnight. Luminescence was captured on a plate luminometer such as an Envision or View Lux to measure Day 0 time point both select cell lines. LUM plus, gain 3500, 0.1 s and focal height 12.5 [mm] on PheraStar reader. The raw data was extracted from the instrument and normalized all fields containing test compounds to the average of all wells containing DMSO alone as neutral control. From this value, the percent growth inhibition was calculated for each compound. Dose response curves and inhibitory IC50s were generated by graphing the normalized data values against the compound concentration using either a program such as GraphPad™ or Excel Fit.

[3] = system: WM793 cells; experiment: Cell proliferation assay (CellTiter-Glo); format: cell-based; settings: 3 d, read-out: Cell proliferation qualified AC50
Experimental: as §1
After counting the cells, the concentration of the cell solution was adjusted to seed a total of 750 cells per well in 50 μL of complete media into 384-well tissue culture treated plates. In a biological safety cabinet, cells were seeded using a sterilized small stainless steel tipped cassette on a Multi-drop Combi. Between different cell lines, the tubing of the cassette was flushed with 1× sterile PBS for 10 seconds. Alternatively, cells can be seeded using a Multi-flow located within a Hepa filtered robotics room using either a sterilized small sapphire jewel tipped cassette and the peristatic pump, or the attached syringe pump, depending on volume of plates per cell line needed. The plates were placed in an incubator set at 37° C., with 5% CO2 and 95% relative humidity. A 10-point, 3-fold serial dilutions of compounds in 100% DMSO was prepared on a liquid handling robot with a 10 mM top concentration. 100 nL/well in three assay plates/1 compound was dispensed to source plate, with the highest concentration at 20 μM. After addition of compound was complete, plates were placed into an incubator at 37° C., with 5% CO2 and 95% relative humidity for 3 d. An adequate volume of CellTiter-Glo® (Promega #G7571) detection reagent was pre-warmed to RT or in a 37° C. H2O bath. 25 μL of the reagent was added to each well using either a Multi-drop Combi or MultiFlo and incubate at RT for at least 15 min. Luminesce was captured on a plate luminometer such as an Envision or View Lux to measure Day 0 time point both select cell lines. LUM plus, gain 3500, 0.1 s and focal height 12.5 mm on PheraStar reader. At Day 3, an adequate volume of CellTiter-Glo® detection reagent was pre-warmed at RT or in a 37° C. H2O bath. A total of 25 μL of the reagent was added to each well using either a Multi-drop Combi or MultiFlo and incubate at RT for at least 15 min. Luminesce was captured on a plate luminometer such as an Envision or View Lux to measure Day 3 time point both select cell lines. LUM plus, gain 3500, 0.1 s and focal height 12.5 mm on PheraStar reader. Raw data was extracted from the instrument and all fields containing test compounds were normalized to the average of all wells containing DMSO alone from Day 3 as neutral control and Day 0 starting numbers. From this value, percent growth inhibition of each compound was calculated. Dose response curves and growth inhibitory IC50s were generated by graphing the normalized data values against the compound concentration using a program such as GraphPad™ or Excel Fit.

T1 sequence (P28482 2-360 limits assumed): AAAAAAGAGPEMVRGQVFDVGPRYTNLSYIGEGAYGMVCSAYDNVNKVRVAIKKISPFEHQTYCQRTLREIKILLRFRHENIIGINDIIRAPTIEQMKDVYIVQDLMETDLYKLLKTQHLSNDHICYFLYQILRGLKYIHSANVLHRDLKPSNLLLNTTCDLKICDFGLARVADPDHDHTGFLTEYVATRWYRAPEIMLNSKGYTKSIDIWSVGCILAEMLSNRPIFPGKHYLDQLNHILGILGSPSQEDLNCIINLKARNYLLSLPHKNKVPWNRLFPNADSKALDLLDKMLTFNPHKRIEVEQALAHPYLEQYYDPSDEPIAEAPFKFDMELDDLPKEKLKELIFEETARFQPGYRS
T2 sequence (P28482 whole entry): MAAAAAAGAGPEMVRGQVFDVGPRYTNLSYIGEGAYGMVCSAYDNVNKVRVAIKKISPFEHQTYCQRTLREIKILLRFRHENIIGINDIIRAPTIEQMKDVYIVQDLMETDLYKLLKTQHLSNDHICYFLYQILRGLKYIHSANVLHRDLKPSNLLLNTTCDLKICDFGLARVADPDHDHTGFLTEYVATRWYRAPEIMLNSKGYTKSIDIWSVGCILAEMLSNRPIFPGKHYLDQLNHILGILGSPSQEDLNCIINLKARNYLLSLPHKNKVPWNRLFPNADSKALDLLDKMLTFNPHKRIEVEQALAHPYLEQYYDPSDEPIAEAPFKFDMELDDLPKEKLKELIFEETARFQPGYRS

Compound | AC50 [1] [nM] | AC50 [2] [nM] | AC50 [3] [nM] | AC50 ([3]; Homo sapiens, WM793, 72 h) [nM]
CCc1c(C[C@H]2CC[C@H](OC(C)C)CC2)c2ccc(F)cc2n1C(=O)N1CCC(C(=O)N[C@H]2CC[C@H](C(=O)O)C[C@@H]2C)(c2ccc(F)cc2)CC1 [Example 2, (1S,3S,4S)-4-(1-(2-ethyl-6-fluoro-3-(((1r,4S)-4-isopropoxycyclohexyl)methyl)-1H-indole-1-carbonyl)-4-(4-fluorophenyl)piperidine-4-carboxamido)-3-methylcyclohexane-1-carboxylic acid] | < 0.28 | 190 | 110 | –
C[C@H]1C[C@@H](C(=O)O)CC[C@@H]1NC(=O)[C@@]1(c2ccc(F)cc2)CCN(C(=O)n2c3c(c4ccc(F)cc42)C(C2CCOCC2)OCC3)[C@@H](C)C1 (single isomer, unassigned) [Example 10] | < 0.28 | 280 | – | 40
COCCc1c(C[C@H]2CC[C@H](OC(C)C)CC2)c2ccc(F)cc2n1C(=O)N1CCC(C(=O)N[C@H]2CC[C@H](C(=O)O)C[C@@H]2C)(c2ccc(F)cc2)CC1 [Example 3, (1S,3S,4S)-4-(1-(6-fluoro-3-(((1r,4S)-4-isopropoxycyclohexyl)methyl)-2-(2-methoxyethyl)-1H-indole-1-carbonyl)-4-(4-fluorophenyl)piperidine-4-carboxamido)-3-methylcyclohexane-1-carboxylic acid] | 0.5 | 46 | – | 60
CCc1c(CC2CCOCC2)c2ccc(F)cc2n1C(=O)N1CCC(C(=O)N[C@H]2CC[C@H](C(=O)O)C[C@@H]2C)(c2ccc(F)cc2)CC1 [Example 1h] | < 0.28 | 55 | – | 16
COCCc1c(C[C@H]2CC[C@H](OC(C)C)CC2)c2cc(F)c(F)cc2n1C(=O)N1CCC(C(=O)N[C@H]2CC[C@H](C(=O)O)C[C@@H]2C)(c2ccc(F)cc2)CC1 [Example 1f] | < 0.28 | 140 | – | 52
CN1CC[C@@H](NC(=O)C2(c3ccc(Cl)cc3)CCN(C(=O)c3c(C=O)n(CC4CCOCC4)c4ccc(Cl)cc34)CC2)C1 [Example 11b] | 0.65 | 560 | – | 220
CCc1c(C[C@H]2CC[C@H](OC3CCOCC3)CC2)c2ccc(F)cc2n1C(=O)N1CCC(C(=O)N[C@H]2C[C@H](C(=O)O)C[C@@H]2C)(c2ccc(F)cc2)CC1 [Example 1d] | < 0.28 | 300 | – | 110
CCc1c(C[C@H]2CC[C@H](OC3CCOCC3)CC2)c2ccc(F)cc2n1C(=O)N1CCC(C(=O)N[C@H]2CC[C@H](C(=O)O)C[C@@H]2C)(c2ccc(Cl)nc2)CC1 [Example 1k] | 0.48 | 250 | – | 33
CO[C@H]1CC[C@H](Cc2c(C)n(C(=O)N3CCC(C(=O)N[C@H]4CC[C@H](C(=O)O)CC4)(c4ccc(F)cc4)CC3)c3cc(F)ccc23)CC1 [Example 1c] | 1.3 | 390 | – | 940
Cc1c(C(=O)N2CCC(C(=O)N[C@H]3CN(C)C[C@H]3F)(c3ccc(F)cc3)CC2)c2cc(Cl)ccc2n1CC1CCOCC1 [Example 12, 1-(5-chloro-2-methyl-1-((tetrahydro-2H-pyran-4-yl)methyl)-1H-indole-3-carbonyl)-N-((3S,4R)-4-fluoro-1-methylpyrrolidin-3-yl)-4-(4-fluorophenyl)piperidine-4-carboxamide] | 1.3 | 350 | – | 270
Cc1c(CC2CCC(OC(C)C)CO2)c2ccc(F)cc2n1C(=O)N1CC[C@@](C(=O)N[C@H]2CC[C@H](C(=O)O)C[C@@H]2C)(c2ccc(F)cc2)C[C@@H]1C (stereo partly drawn) [Example 1i] | < 0.28 | 31 | – | 15
Cc1c(C[C@H]2CC[C@H](OC3CCOCC3)CC2)c2ccc(F)cc2n1C(=O)N1CC[C@@](C(=O)N[C@H]2CC[C@H](C(=O)O)C[C@@H]2C)(c2ccc(F)cc2)C[C@@H]1C [Example 9, (1S,3S,4S)-4-((2S,4S)-1-(6-fluoro-2-methyl-3-(((1r,4S)-4-((tetrahydro-2H-pyran-4-yl)oxy)cyclohexyl)methyl)-1H-indole-1-carbonyl)-4-(4-fluorophenyl)-2-methylpiperidine-4-carboxamido)-3-methylcyclohexane-1-carboxylic acid] | 0.44 | 26 | – | 5.9
CCc1c(C[C@H]2CC[C@H](OC3CCOCC3)CC2)c2ccc(F)cc2n1C(=O)N1CC[C@@](C(=O)N[C@H]2CC[C@H](C(=O)O)C[C@@H]2C)(c2ccccc2)C[C@@H]1C [Example 1j] | < 0.28 | 30 | – | 29

Second part, led by results:

AC50 [1] [nM] | AC50 [2] [nM] | Compound | AC50 [3] [nM] | AC50 ([3]; Homo sapiens, WM793, 72 h) [nM]
0.32 | 260 | C[C@H]1C[C@@H](C(=O)O)CC[C@@H]1NC(=O)[C@@]1(c2ccc(F)cc2)CCN(C(=O)N2CCc3ccc(F)cc32)[C@@H](C)C1 [Example 4b] | – | 220
37 | 12000 | C[C@H]1C[C@@H](C(=O)O)CC[C@@H]1NC(=O)C1(c2ccc(F)cc2)CCN(C(=O)n2c3c(c4ccc(F)cc42)[C@@H](c2ccccc2)OCC3)CC1 (single isomer, unassigned) [Example 10b] | – | 10000
0.36 | 270 | CC(C)O[C@H]1CC[C@H](Cn2c(C=O)c(C(=O)N3CCC(C(=O)N[C@H]4CC[C@H](C(=O)O)C[C@@H]4C)(c4ccc(F)cc4)CC3)c3cc(Cl)cnc32)CC1 [Example 11g] | – | 610
3.9 | 1200 | CC(C)O[C@H]1CC[C@H](C2CN(C(=O)N3CC[C@@](C(=O)N[C@H]4CC[C@H](C(=O)O)C[C@@H]4C)(c4ccc(F)cc4)C[C@@H]3C)c3cc(F)ccc32)CC1 (single isomer, unassigned) [Example 4c] | – | 410

From patent US20250092036A1, “COMPOUNDS AND COMPOSITIONS FOR MODULATING THE ACTIVITY OF ERK” (Novartis AG, priority 2023, published 2025)
